# Assay results taken from patent US7183100B2, “Aconitase” (priority 2003, dated 2007).
# Key:
# [1] = test system: PA01, FRD1 and mucoid clinical isolate strains (acnC or acnA disrupted); test: Growth on propanediol as carbon source; format: cell-based, P. aeruginosa; settings: all strains
# Excerpt: (§1) In addition to PA01, an additional mucosal strain, FRD1 with gentamicin resistance was subjected to disruption of the acnC gene, as was a mucoid clinical isolate. For comparison, aconitase A was also similarly disrupted. All of the strains behaved similarly in respect to their ability to grow on propanediol in the presence and absence of propionic acid.
# FRD1 [2] = test: Reversal of propionate growth inhibition by TCA intermediates in M9 minimal media; format: cell-based, P. aeruginosa; settings: 0.4% propionate
# Description: This effect was tested by supplementing M9 minimal media with various TCA cycle components in the presence of 0.4% propionate.
# [3] = test system: acnC disrupted strain (PA01*); test: Growth on various carbon sources; format: cell-based, P. aeruginosa; settings: substance used as carbon source
# Excerpt: (§2) When tested for growth on various carbon sources, no difference was observed when glucose, glutamate, citrate, isocitrate, succinate, acetate, pyruvate, butyrate, hexonate, or glyoxalate was used as a carbon source.
# FRD1 [4] = test: Effect of ibuprofen on growth of FRD1 (absorbance at 600 nm); format: cell-based, P. aeruginosa; settings: Pseudomonas aeruginosa, 2 ml LB cultures, read-out: percent inhibition of growth
# Description: Ibuprofen is known to generate propionic acid when metabolized and was thus tested for its ability to inhibit the growth of FRD1. Other propionate-generating compounds include certain α4β1 integrin antagonists described by DuPlantier, A. J., et al., Bioorg. Med. Chem. Let. (2001) 11:2593–2596. Using absorbance at 600 nm as the criterion, growth inhibition was detected at a concentration of 0.5 mg/ml of ibuprofen added to 2 ml LB cultures; the percent inhibition at this level was 19%. Inhibition increased in a dose-dependent manner to 72% at 5 mg/ml, and was similar at 10 mg/ml (73%).
# PA01 wildtype = test: Growth on various carbon sources; format: cell-based, P. aeruginosa; settings: substance used as carbon source
# Excerpt: as §2
# mucoid clinical isolates = test: Effect of propionate on growth of mucoid clinical isolates; format: cell-based; settings: low concentrations of propionate, FIG. 4, vs non-mucoid BH1 and revertant BAB
# PA01* [5] = test: Growth in TSBD plus 100 μM iron medium with propionate; format: cell-based, P. aeruginosa; settings: 0.05% propionate, with and without 50 mM glutamate, FIG. 3
# wildtype PA01 [6] = test: Propionate inhibition of growth; format: cell-based, P. aeruginosa; settings: 0.4% propionate
# Excerpt: (§3) FRD1 is much more susceptible to propionate inhibition than wildtype PA01. While PA01 is able to grow on 0.4% propionate, inhibition of FRD1 growth occurs at levels of 0.1% propionate and inhibition is complete as low as 0.2% propionate in the medium.
# FRD1 [7] = test: Propionate inhibition of growth; format: cell-based, P. aeruginosa; settings: in the medium
# Excerpt: as §3
# PA01 [8] = test: Effect of propionate on antibiotic susceptibility (antibiotic discs); format: cell-based, P. aeruginosa; settings: 0.2% propionate; amikacin, carbenicillin, ciprofloxacin, tobramycin, tetracycline discs
# Description: (§4) The effect of various concentrations of propionate on the ability of antibiotics to curtail the growth of PA01 or FRD1 was tested. Levels of 0.2% propionate appeared to have no effect on PA01 growth in the presence of the antibiotics amikacin, carbenicillin, ciprofloxacin, tobramycin, and tetracycline. Growth was assured by the diameter of colonies formed in the presence of discs containing amikacin (AN-30), 30 μg, carbenicillin (CB-100), 100 μg, ciprofloxacin (CIP-5), 5 μg, tobramycin (NN-10), 10 μg, or tetracycline (TE-30), 30 μg.
# FRD1 [9] = test: as above; format: cell-based, P. aeruginosa; settings: 0.2% propionate
# Description: as §4
# wildtype PA01 [10] = test: Growth in LB medium with 0.4% propionate; format: cell-based, P. aeruginosa
# Description: (§5) The effect of the addition of 0.4% propionate to LB medium containing wildtype PA01, PA01*, and the more sensitive mucoid strain FRD1, was also tested.
# PA01* [11] = test: Growth in LB medium with 0.4% propionate; format: cell-based, P. aeruginosa
# Description: as §5
# FRD1 [12] = test: Growth in LB medium with 0.4% propionate; format: cell-based, P. aeruginosa
# Description: as §5
# FRD1 cells = test: Attachment of cells to plastic tubes (absorbance at 570 nm); format: cell-based, P. aeruginosa; settings: as low as 0.1% propionate
# Description: (§6) As mucoid production is necessary for attachment, the effect on mucoid production of addition of propionate can be tested by assessing the level of attachment of the cells to plastic tubes. This was measured as the absorbance at 570 nm of plastic tubes.
# PA01 [13] = test: as above; format: cell-based, P. aeruginosa; settings: compared with FRD1
# Description: as §6
# [14] = test system: FRD1 with disrupted aconitase C gene; test: Growth on propanediol with added propionic acid; format: cell-based, P. aeruginosa; settings: propanediol medium
# Excerpt: as §1
# [15] = test system: PA01 with disrupted aconitase C gene; test: Growth on propanediol with added propionic acid; format: cell-based, P. aeruginosa; settings: propanediol medium
# Excerpt: as §1
compound,measurement,setting,value
"CC(O)CO (stereo not drawn) [1,2-propanediol]",ability to grow on carbon source,[1],able to grow
"OCCCO [1,3-propanediol]",ability to grow on carbon source,[1],less able to grow
CC(=O)O [acetate],reversal of negative effects of propionate on growth,FRD1 [2],successful
same,difference in growth between wildtype and acnC disrupted strain,[3],no difference
O=C(O)CC(O)(CC(=O)O)C(=O)O [citrate],difference in growth between wildtype and acnC disrupted strain,[3],no difference
N[C@@H](CCC(=O)O)C(=O)O [glutamate],reversal of negative effects of propionate on growth,FRD1 [2],successful
same,difference in growth between wildtype and acnC disrupted strain,[3],no difference
O=CC(=O)O [glyoxalate],difference in growth between wildtype and acnC disrupted strain,[3],no difference
"CCCCCC(=O)O [hexanoate, hexanoic acid]",difference in growth between wildtype and acnC disrupted strain,[3],no difference
"CC(C)Cc1ccc(C(C)C(=O)O)cc1 (stereo not drawn) [ibuprofen, Ibuprofen]",inhibition at 500 µg/mL,FRD1 [4]; 0.5 mg/ml,19%
same,inhibition at 5000 µg/mL,FRD1 [4]; 5 mg/ml,72%
same,inhibition at 10000 µg/mL,FRD1 [4]; 10 mg/ml,73%
O=C(O)CC(O)C(=O)O (stereo not drawn) [malate],reversal of negative effects of propionate on growth,FRD1 [2],successful
"CCCCC(=O)O [pentanoate, pentanoic acid]",growth of acnC disrupted strain on carbon source,[3],did not grow
same,growth of wildtype on carbon source,PA01 wildtype,grow well
"CCC(=O)O [propionate, propionic acid]",growth inhibition,mucoid clinical isolates,substantial growth inhibition
same,growth as compared to wildtype,PA01* [5],growth is diminished
same,growth on propionate,wildtype PA01 [6],able to grow
same,propionate level at which inhibition of growth is complete,FRD1 [7],0.2%
same,propionate level at which inhibition of growth occurs,FRD1 [7],0.1%
same,effect on growth in the presence of antibiotics,PA01 [8],no effect
same,effect on growth inhibition by antibiotics,FRD1 [9]; CB-100 and CIP-5 discs,diminish the effect
same,effect on efficiency of antibiotics,"FRD1 [9]; remaining antibiotics (amikacin, tobramycin, tetracycline)","little, if any, effect"
same,response of growth,wildtype PA01 [10],does not respond
same,response of growth,PA01* [11],diminished growth
same,response of growth,FRD1 [12],diminished growth
same,effect on attachment to plastic tubes,FRD1 cells,diminish significantly
same,effect on attachment to plastic tubes,PA01 [13],less dramatic
same,growth of acnC disrupted strain on carbon source,[3],did not grow
same,growth of wildtype on carbon source,PA01 wildtype,grow well
same,ability to grow after addition of propionic acid,[14],completely abolished
same,ability to grow after addition of propionic acid,[15],completely abolished
O=C(O)CCC(=O)O [succinate],difference in growth between wildtype and acnC disrupted strain,[3],no difference
